In patent US10023592B2, “Bromodomain inhibitors” (Celgene Quanticel Research, Inc., priority 2013, dated 2018):
Where a name gives a salt, the structure may show the parent alone.

The molecules below were run against BRD4(BD1) (Homo sapiens (Human), UniProt O60885) (assay: In vitro enzyme inhibition assay (BRD4 AlphaScreen)). Details: not given.
Assay type: binding
Protocol: His-tagged BRD4 was cloned, expressed and purified to homogeneity. […] BRD4 binding and inhibition was assessed by monitoring the interaction of biotinylated H4-tetraacetyl peptide (AnaSpec, H4K5/8/12/16(Ac), biotin-labeled) with the target using the AlphaScreen technology (Life Technologies). […] After 20 min incubation at room temp, Alpha streptavidin donor beads and Nickel Chelate acceptor beads were added to a final concentration of 5 μg/mL.
The ability of the compounds disclosed herein to inhibit BRD4 activity was quantified and the respective IC50 value was determined.

Molecule	IC50 [nM]
8-[2-(cyclopropylmethoxy)-5-ethylsulfonylphenyl]-6-methyl-3,4,4a,8a-tetrahydro-2H-pyrido[4,3-b][1,4]oxazin-5-one [Example 366]	< 500

Same assay, conditions: class symbols A/B/C

IC50 [nM]	Molecule
> 5000	COc1ccc(-c2cn(C)c(=O)c(N)n2)cc1NS(C)(=O)=O [Example 106, N-[5-(6-amino-4-methyl-5-oxopyrazin-2-yl)-2-methoxyphenyl]methanesulfonamide]
500 to 5000	CCN(CC)c1cc(-c2ccc(OC)c(NS(C)(=O)=O)c2)cn(C)c1=O [Example 114, N-[5-[5-(diethylamino)-1-methyl-6-oxopyridin-3-yl]-2-methoxyphenyl]methanesulfonamide]
500 to 5000	Cn1cc(-c2ccc(F)c(N)c2)c2ccccc2c1=O [Example 26, 4-(3-amino-4-fluorophenyl)-2-methylisoquinolin-1-one hydrochloride]
> 5000	Cn1cc(-c2ccco2)c2ccccc2c1=O [Example 66, 4-(furan-2-yl)-2-methylisoquinolin-1-one]

More lines, now with the values behind:

Molecule	IC50 [nM]
CCS(=O)(=O)c1cccc(-c2cc(N)c(=O)n(C)c2)c1 [Example 108, 3-amino-5-(3-ethylsulfonylphenyl)-1-methylpyridin-2-one]	> 5000
COc1ccc(-c2cn(C)c(=O)c3cnccc23)cc1S(N)(=O)=O [Example 56, 2-methoxy-5-(2-methyl-1-oxo-2,7-naphthyridin-4-yl) benzenesulfonamide]	> 5000
Cn1cc(-c2cc(N)c(F)cc2F)c2ccccc2c1=O [Example 24, 4-(5-amino-2,4-difluorophenyl)-2-methylisoquinolin-1-one hydrochloride]	500 to 5000
Cc1cc(-c2cccc(NS(C)(=O)=O)c2)cn(C)c1=O [Example 96, N-[3-(1,5-dimethyl-6-oxopyridin-3-yl)phenyl]methanesulfonamide]	500 to 5000
Cc1c(-c2cccc(NS(C)(=O)=O)c2)cn(C)c(=O)c1C [Example 97, N-[3-(1,4,5-trimethyl-6-oxopyridin-3-yl)phenyl]methanesulfonamide]	500 to 5000

Same assay, conditions: in vitro enzyme inhibition assay

IC50 [nM]	Molecule
> 5000	CCC(=O)Nc1cc(-c2cccc(NS(C)(=O)=O)c2)cn(C)c1=O [Example 481, N-[5-[3-(methanesulfonamido)phenyl]-1-methyl-2-oxopyridin-3-yl]propanamide]
500 to 5000	Cn1cc(-c2cc(S(C)(=O)=O)ccc2OCC2CC2)c2ncncc2c1=O [Example 231, 8-[2-(cyclopropylmethoxy)-5-methylsulfonylphenyl]-6-methylpyrido[4,3-d]pyrimidin-5-one]
< 500	Cc1cc(-c2cc(S(C)(=O)=O)ccc2NC2CCOC2)cn(C)c1=O (centres unmarked) [Example 425, 1,3-dimethyl-5-[5-methylsulfonyl-2-(oxolan-3-ylamino)phenyl]pyridin-2-one]
< 500	Cn1cc(-c2nc(S(C)(=O)=O)ncc2Oc2ccc(F)cc2F)c2ccccc2c1=O [Example 151, 4-[5-(2,4-difluorophenoxy)-2-methylsulfonylpyrimidin-4-yl]-2-methylisoquinolin-1-one]
500 to 5000	Cc1cc(=O)n(C)cc1-c1cc(S(C)(=O)=O)ccc1NCC1CC1 [Example 422, 5-[2-(cyclopropylmethylamino)-5-methylsulfonylphenyl]-1,4-dimethylpyridin-2-one]
< 500	CC(C)S(=O)(=O)c1ccc(OCC2CC2)c(-c2cn(C)c(=O)c3ccccc23)c1 [Example 364, 4-[2-(cyclopropylmethoxy)-5-propan-2-ylsulfonylphenyl]-2-methylisoquinolin-1-one]
< 500	CCCCc1cnc(S(C)(=O)=O)nc1-c1cc(C)c(=O)n(C)c1 [Example 305, 5-(5-butyl-2-methylsulfonylpyrimidin-4-yl)-1,3-dimethylpyridin-2-one]
< 500	Cn1cc(-c2nc(S(C)(=O)=O)ncc2OCC2CC2)c2ccccc2c1=O [Example 311, 4-[5-(cyclopropylmethoxy)-2-methylsulfonylpyrimidin-4-yl]-2-methylisoquinolin-1-one]
> 5000	CC(=O)Nc1cc(-c2cccc(NS(C)(=O)=O)c2)cn(C)c1=O [Example 482, N-[5-[3-(methanesulfonamido)phenyl]-1-methyl-2-oxopyridin-3-yl]acetamide]
< 500	CCOc1ccc(S(C)(=O)=O)cc1-c1cn(C)c(=O)c2c1CCCC2 [Example 216, 4-(2-ethoxy-5-methylsulfonylphenyl)-2-methyl-5,6,7,8-tetrahydroisoquinolin-1-one]
500 to 5000	CCS(=O)(=O)Cc1ccc(OCC(F)(F)F)c(-c2cc(C)c(=O)n(CCO)c2)c1 [Example 407, 5-[5-(ethylsulfonylmethyl)-2-(2,2,2-trifluoroethoxy)phenyl]-1-(2-hydroxyethyl)-3-methylpyridin-2-one]
500 to 5000	CCS(=O)(=O)c1ccc(OC)c(-c2cc(O)c(=O)n(C)c2)c1 [Example 461, 5-(5-ethylsulfonyl-2-methoxyphenyl)-3-hydroxy-1-methylpyridin-2-one]
< 500	Cc1cc(-c2cc(S(C)(=O)=O)ccc2O[C@H]2CC[C@@H](N)CC2)cn(C)c1=O [Example 403, 5-[2-(cis-4-aminocyclohexyl)oxy-5-methylsulfonylphenyl]-1,3-dimethylpyridin-2-one]
< 500	CCC1CCc2cc(NS(=O)(=O)CC)cc(-c3cc(C)c(=O)n(C)c3)c2O1 (centres unmarked) [Example 492, N-[8-(1,5-dimethyl-6-oxopyridin-3-yl)-2-ethyl-3,4-dihydro-2H-chromen-6-yl] ethanesulfonamide]
< 500	CCS(=O)(=O)Nc1ccc(Oc2ccc(F)cc2F)c(-c2cn(C)c(=O)c3c2CCC3)c1 [Example 507, N-[4-(2,4-difluorophenoxy)-3-(2-methyl-1-oxo-6,7-dihydro-5H-cyclopenta[c]pyridin-4-yl)phenyl]ethanesulfonamide]
< 500	CCS(=O)(=O)Cc1ccc(OCC(F)(F)F)c(-c2cc(C)c(=O)n(C)c2)c1 [Example 411, 5-[5-(ethylsulfonylmethyl)-2-(2,2,2-trifluoroethoxy)phenyl]-1,3-dimethylpyridin-2-one]
< 500	CNc1cc(-c2cc(NS(C)(=O)=O)ccc2Oc2ccc(F)cc2F)cn(C)c1=O [Example 412, N-[4-(2,4-difluorophenoxy)-3-[1-methyl-5-(methylamino)-6-oxopyridin-3-yl]phenyl]methanesulfonamide]
500 to 5000	CC(C)c1cc(-c2nc(S(C)(=O)=O)ncc2Oc2ccc(F)cc2F)cn(C)c1=O [Example 273, 5-[5-(2,4-difluorophenoxy)-2-methylsulfonylpyrimidin-4-yl]-1-methyl-3-propan-2-ylpyridin-2-one]

Second part, the molecule before the results:

Molecule	IC50 [nM]
CCS(=O)(=O)Nc1nc(Oc2ccc(F)cc2F)cc(-c2cc(C)c(=O)n(C)c2)n1 [Example 346, N-[4-(2,4-difluorophenoxy)-6-(1,5-dimethyl-6-oxopyridin-3-yl)pyrimidin-2-yl]ethanesulfonamide]	500 to 5000
C#Cc1cc(-c2cc(S(C)(=O)=O)ccc2OCC2CC2)cn(C)c1=O [Example 285, 5-[2-(cyclopropylmethoxy)-5-methylsulfonylphenyl]-3-ethynyl-1-methylpyridin-2-one]	500 to 5000
Cn1cc(-c2cc(S(C)(=O)=O)ccc2Oc2ccc(F)cc2F)c2ncncc2c1=O [Example 233, 8-[2-(2,4-difluorophenoxy)-5-methylsulfonylphenyl]-6-methylpyrido[4,3-d]pyrimidin-5-one]	500 to 5000
CCCCn1cc(-c2nc(NS(=O)(=O)CC)ncc2Oc2ccc(F)cc2F)cc(C)c1=O [Example 297, N-[4-(1-butyl-5-methyl-6-oxopyridin-3-yl)-5-(2,4-difluorophenoxy)pyrimidin-2-yl]ethanesulfonamide]	< 500
Cc1cc(-c2cc(S(C)(=O)=O)ccc2OCC2CC2)cn(C2CCC2)c1=O [Example 483, 1-cyclobutyl-5-[2-(cyclopropylmethoxy)-5-methylsulfonylphenyl]-3-methylpyridin-2-one]	< 500
CCCCc1ccc(S(C)(=O)=O)cc1-c1cn(C)c(=O)c2ccccc12 [Example 318, 4-(2-butyl-5-methylsulfonylphenyl)-2-methylisoquinolin-1-one]	< 500
Cc1cc(-c2cc(OCC3(C)COC3)cc(S(C)(=O)=O)c2)cn(C)c1=O [Example 329, 1,3-dimethyl-5-[3-[(3-methyloxetan-3-yl)methoxy]-5-methylsulfonylphenyl]pyridin-2-one]	< 500
CCCCn1cc(-c2nc(NS(C)(=O)=O)ncc2Oc2ccc(F)cc2F)cc(C)c1=O [Example 296, N-[4-(1-butyl-5-methyl-6-oxopyridin-3-yl)-5-(2,4-difluorophenoxy)pyrimidin-2-yl]methanesulfonamide]	< 500
CCCc1cnc(NS(=O)(=O)CC)nc1-c1cc(OC)c(=O)n(C)c1 [Example 361, N-[4-(5-methoxy-1-methyl-6-oxopyridin-3-yl)-5-propylpyrimidin-2-yl]ethanesulfonamide]	< 500
CCS(=O)(=O)Nc1cccc(-c2nn(C)c(=O)cc2C)c1 [Example 479, N-[3-(1,4-dimethyl-6-oxopyridazin-3-yl)phenyl]ethanesulfonamide]	> 5000
CCS(=O)(=O)c1ccc(OCC2CC2)c(-c2cc(N3CCCC3)c(=O)n(C)c2)c1 [Example 282, 5-[2-(cyclopropylmethoxy)-5-ethylsulfonylphenyl]-1-methyl-3-pyrrolidin-1-ylpyridin-2-one]	500 to 5000
Cn1cc(-c2cc(OCC3CC3)cc(S(C)(=O)=O)c2)c2ccccc2c1=O [Example 345, 4-[3-(cyclopropylmethoxy)-5-methylsulfonylphenyl]-2-methylisoquinolin-1-one]	< 500
Cc1cc(-c2cc(NS(C)(=O)=O)ccc2Oc2ccc(F)cc2F)cn(C2CCC2)c1=O [Example 484, N-[3-(1-cyclobutyl-5-methyl-6-oxopyridin-3-yl)-4-(2,4-difluorophenoxy)phenyl]methanesulfonamide]	< 500
